# Data: ChEMBL document CHEMBL3885861, “Open TG-GATES”
# Organism: Rattus norvegicus
# Assay: Open TG-GATES - Regimen: Single
# Assay type: toxicity, organism-based, Sprague-Dawley
# Set-up: regimen Single, gender Male, age 6 weeks
# Conditions: in vivo, po, route gavage; for Bas / Eos / Fbg / Hb / Ht / Lym / MCHC / MCV / Mono / Neu / PT / Plat / RBC / Ret / WBC / APTT: tissue Blood; for KIDNEY_L / KIDNEY_R / KIDNEY_TOTAL: tissue Kidney; for LIVER: tissue Liver
# [1] = 300 mg/kg, 3 h, dose level Middle
# [2] = 300 mg/kg, 3 h, tissue Plasma, dose level Middle
# [3] = 300 mg/kg, 6 h, dose level Middle
# [4] = 300 mg/kg, 6 h, tissue Plasma, dose level Middle
# [5] = 300 mg/kg, 9 h, dose level Middle
# [6] = 300 mg/kg, 9 h, tissue Plasma, dose level Middle
# [7] = 300 mg/kg, 24 h, dose level Middle
# [8] = 300 mg/kg, 24 h, tissue Plasma, dose level Middle
smiles,measurement,setting,value
CN(C)C(=N)N=C(N)N [METFORMIN],Bas,[1],0%
same,Eos,[1],1%
same,Fbg,[1],256.8 mg/dL
same,Hb,[1],12.8 g/dL
same,Ht,[1],39.1%
same,Lym,[1],72.6%
same,MCHC,[1],32.9%
same,MCV,[1],64.2 fL
same,Mono,[1],2.8%
same,Neu,[1],23.2%
same,PT,[1],12.3 s
same,Plat,[1],125.2 x10_4/uL
same,RBC,[1],612.2 x10_4/ul
same,Ret,[1],10.1%
same,WBC,[1],96 x10_2/uL
same,KIDNEY_L,[1],0.9 g
same,KIDNEY_R,[1],0.9 g
same,KIDNEY_TOTAL,[1],1.7 g
same,LIVER,[1],8.1 g
same,ALP,[2],1196.4 IU/L
same,ALT,[2],58 IU/L
same,AST,[2],77.2 IU/L
same,BUN,[2],8.8 mg/dL
same,CRE,[2],0.2 mg/dL
same,Ca,[2],11.1 mg/dL
same,Cl,[2],106.2 meq/L
same,DBIL,[2],0.01 mg/dL
same,GLC,[2],156.2 mg/dL
same,IP,[2],9 mg/dL
same,K,[2],3.8 meq/L
same,LDH,[2],65 IU/L
same,Na,[2],140.6 meq/L
same,PL,[2],132.2 mg/dL
same,RALB,[2],2.5 g/dL
same,TBIL,[2],0.038 mg/dL
same,TG,[2],46.2 mg/dL
same,TP,[2],5.2 g/dL
same,gamma-GTP,[2],1.2 IU/L
same,TERMINAL_BW,[3],200 g
same,APTT,[3],16.3 s
same,Bas,[3],0.2%
same,Eos,[3],1%
same,Fbg,[3],254 mg/dL
same,Hb,[3],12.8 g/dL
same,Ht,[3],38.1%
same,Lym,[3],75.6%
same,MCHC,[3],33.6%
same,MCV,[3],63 fL
same,Mono,[3],3%
same,Neu,[3],20.2%
same,PT,[3],12.5 s
same,Plat,[3],113.5 x10_4/uL
same,RBC,[3],604.4 x10_4/ul
same,Ret,[3],9.6%
same,WBC,[3],95.4 x10_2/uL
same,KIDNEY_L,[3],0.9 g
same,KIDNEY_R,[3],0.9 g
same,KIDNEY_TOTAL,[3],1.7 g
same,LIVER,[3],7.3 g
same,ALP,[4],1116.6 IU/L
same,ALT,[4],85 IU/L
same,AST,[4],85.6 IU/L
same,BUN,[4],8.4 mg/dL
same,CRE,[4],0.2 mg/dL
same,Ca,[4],11 mg/dL
same,Cl,[4],105.6 meq/L
same,DBIL,[4],0.004 mg/dL
same,GLC,[4],153.4 mg/dL
same,IP,[4],10.3 mg/dL
same,K,[4],4.1 meq/L
same,LDH,[4],51.8 IU/L
same,Na,[4],140 meq/L
same,PL,[4],126 mg/dL
same,RALB,[4],2.5 g/dL
same,TBIL,[4],0.04 mg/dL
same,TG,[4],28.2 mg/dL
same,TP,[4],5.1 g/dL
same,gamma-GTP,[4],1 IU/L
same,TERMINAL_BW,[5],199.7 g
same,APTT,[5],15.9 s
same,Bas,[5],0%
same,Eos,[5],1%
same,Fbg,[5],250.2 mg/dL
same,Hb,[5],12.8 g/dL
same,Ht,[5],38.2%
same,Lym,[5],75%
same,MCHC,[5],33.6%
same,MCV,[5],64.1 fL
same,Mono,[5],2.6%
same,Neu,[5],20.4%
same,PT,[5],12.4 s
same,Plat,[5],111.7 x10_4/uL
same,RBC,[5],595.8 x10_4/ul
same,Ret,[5],10.1%
same,WBC,[5],82.7 x10_2/uL
same,KIDNEY_L,[5],0.8 g
same,KIDNEY_R,[5],0.9 g
same,KIDNEY_TOTAL,[5],1.7 g
same,LIVER,[5],6.8 g
same,ALP,[6],1220.2 IU/L
same,ALT,[6],61.2 IU/L
same,AST,[6],75.6 IU/L
same,BUN,[6],9 mg/dL
same,CRE,[6],0.1 mg/dL
same,Ca,[6],10.7 mg/dL
same,Cl,[6],106.6 meq/L
same,DBIL,[6],0.008 mg/dL
same,GLC,[6],162.6 mg/dL
same,IP,[6],10.2 mg/dL
same,K,[6],4 meq/L
same,LDH,[6],52.2 IU/L
same,Na,[6],140.8 meq/L
same,PL,[6],126.6 mg/dL
same,RALB,[6],2.5 g/dL
same,TBIL,[6],0.042 mg/dL
same,TG,[6],26.2 mg/dL
same,TP,[6],5 g/dL
same,gamma-GTP,[6],1.4 IU/L
same,TERMINAL_BW,[7],208.8 g
same,APTT,[7],16.1 s
same,Bas,[7],0%
same,Eos,[7],0.8%
same,Fbg,[7],235.6 mg/dL
same,Hb,[7],13.2 g/dL
same,Ht,[7],39.1%
same,Lym,[7],75.2%
same,MCHC,[7],33.8%
same,MCV,[7],63.3 fL
same,Mono,[7],3%
same,Neu,[7],20.6%
same,PT,[7],12.5 s
same,Plat,[7],112.7 x10_4/uL
same,RBC,[7],617.8 x10_4/ul
same,Ret,[7],9.3%
same,WBC,[7],73.1 x10_2/uL
same,KIDNEY_L,[7],0.9 g
same,KIDNEY_R,[7],0.9 g
same,KIDNEY_TOTAL,[7],1.8 g
same,LIVER,[7],9.7 g
same,ALP,[8],1591.2 IU/L
same,ALT,[8],52.4 IU/L
same,AST,[8],77.8 IU/L
same,BUN,[8],15.2 mg/dL
same,CRE,[8],0.2 mg/dL
same,Ca,[8],11.2 mg/dL
same,Cl,[8],104.6 meq/L
same,DBIL,[8],0.014 mg/dL
same,GLC,[8],178 mg/dL
same,IP,[8],8.9 mg/dL
same,K,[8],4.1 meq/L
same,LDH,[8],80 IU/L
same,Na,[8],141.4 meq/L
same,PL,[8],146.6 mg/dL
same,RALB,[8],2.5 g/dL
same,TBIL,[8],0.03 mg/dL
same,TC,[8],83.4 mg/dL
same,TG,[8],87 mg/dL
same,TP,[8],5.4 g/dL
same,gamma-GTP,[8],1 IU/L
same,TERMINAL_BW,"1000 mg/kg, 3 h, dose level High",201 g
